{"source": "patent US10138255B2", "about": "“Piperazine derivatives as HIV protease inhibitors” (Merck Sharp & Dohme Corp., priority 2014, dated 2018)", "data": [{"system": "HIV-1 (H9IIIB strain)", "experiment": "Cell-Based HIV Infection Assay Using a Reporter (MT4-GFP cells)", "conditions": "Human immunodeficiency virus 1, inflection point (IP) of viral growth inhibition; MT4-GFP cells infected with HIV-1 H9IIIB; 50% normal human serum; mean of at least two independent experiments; read-out: Cell Based IP (50% NHS)", "in_short": "(§1)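 Inflection point from a 4-parameter curve of % viral growth inhibition, normalised to DMSO and triple-drug controls, using the 48 h/24 h ratio of GFP-positive cells (R0). MT4-GFP cells pre-infected 24 h with HIV-1 H9IIIB at low MOI; compounds tested in 50% normal human serum, 0.4% DMSO; mean of ≥2 experiments.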", "units": {"EC50": "nM"}, "values": [{"smiles": "COC(=O)N[C@H](C(=O)Nc1cccc(F)c1CC[C@H]1CN[C@@H]2CCCS(=O)(=O)N1C2)[C@@H](c1ccc(F)cc1)[C@H]1C[C@@H](OC)C1", "note": "[Example 105, methyl [(1S)-2-[(2-{2-[(6R,9S)-2,2-dioxido-2-thia-1,7-diazabicyclo[4.3.1]dec-9-yl]ethyl}-3-fluorophenyl)amino]-1-{(R)-(4-fluorophenyl)[(1s,3S)-3-methoxycyclobutyl]methyl}-2-oxoethyl]carbamate]", "EC50": 33}, {"smiles": "CO[C@H]1C[C@@H]([C@H](c2ccc(F)cc2)[C@H](N)C(=O)Nc2cccc(F)c2CC[C@H]2CN[C@@H]3CCCS(=O)(=O)N2C3)C1", "note": "[Example 106, (βR)-N-(2-{2-[(6R,9S)-2,2-dioxido-2-thia-1,7-diazabicyclo[4.3.1]dec-9-yl]ethyl}-3-fluorophenyl)-4-fluoro-β-[(1s,3S)-3-methoxycyclobutyl]-L-phenylalaninamide]", "EC50": 110}, {"smiles": "C[C@@H]1CC([C@H](c2ccc(F)cc2)[C@H](N)C(=O)N[C@H]2CCC[C@@H]2CC[C@H]2CN[C@@H]3CCCS(=O)(=O)N2C3)C[C@H](C)O1", "note": "(stereo partly drawn) [Example 107, (βR)-β-[(2R,4s,6S)-2,6-dimethyltetrahydro-2H-pyran-4-yl]-N-[(1S,2R)-2-{2-[(6R,9S)-2,2-dioxido-2-thia-1,7-diazabicyclo[4.3.1]dec-9-yl]ethyl}cyclopentyl]-4-fluoro-L-phenylalaninamide]", "EC50": 84}, {"smiles": "COC(=O)N[C@H](C(=O)N[C@H]1CCC[C@@H]1CC[C@H]1CN[C@@H]2CCCS(=O)(=O)N1C2)[C@@H](c1ccc(F)cc1)C1C[C@@H](C)O[C@@H](C)C1", "note": "(stereo partly drawn) [Example 108, methyl [(1S,2R)-2-[(2R,4s,6S)-2,6-dimethyltetrahydro-2H-pyran-4-yl]-1-{[(1S,2R)-2-{2-[(6R,9S)-2,2-dioxido-2-thia-1,7-diazabicyclo[4.3.1]dec-9-yl]ethyl}cyclopentyl]carbamoyl}-2-(4-fluorophenyl)ethyl]carbamate]", "EC50": 50}, {"smiles": "COC(=O)N[C@H](C(=O)Nc1cccc(F)c1CC[C@H]1CN[C@@H]2CCC(C)S(=O)(=O)N1C2)[C@@H](c1ccc(F)cc1)C1C[C@@H](C)O[C@@H](C)C1", "note": "(stereo partly drawn) [Example 109, methyl [(1S,2R)-2-[(2R,6S)-2,6-dimethyltetrahydro-2H-pyran-4-yl]-1-[(3-fluoro-2-{2-[(6R,9S)-3-methyl-2,2-dioxido-2-thia-1,7-diazabicyclo[4.3.1]dec-9-yl]ethyl}phenyl)carbamoyl]-2-(4-fluorophenyl)ethyl]carbamate]", "EC50": 38}, {"smiles": "CC1CC[C@@H]2CN([C@@H](CCc3c(F)cccc3NC(=O)[C@@H](N)[C@@H](c3ccc(F)cc3)C3C[C@@H](C)O[C@@H](C)C3)CN2)S1(=O)=O", "note": "(stereo partly drawn) [Example 110, (βR)-β-[(2R,6S)-2,6-dimethyltetrahydro-2H-pyran-4-yl]-4-fluoro-N-(3-fluoro-2-{2-[(6R,9S)-3-methyl-2,2-dioxido-2-thia-1,7-diazabicyclo[4.3.1]dec-9-yl]ethyl}phenyl)-L-phenylalaninamide]", "EC50": 55}, {"smiles": "COC(=O)N[C@H](C(=O)Nc1cccc(F)c1CC[C@H]1CN[C@@H]2CCCS(=O)(=O)N1C2)[C@@H](c1ccc(F)cc1)C1C[C@@H](C)O[C@H](C)C1", "note": "(stereo partly drawn) [Example 112, methyl [(1S,2R)-2-[(2R,6R)-2,6-dimethyltetrahydro-2H-pyran-4-yl]-1-[(2-{2-[(6R,9S)-2,2-dioxido-2-thia-1,7-diazabicyclo[4.3.1]dec-9-yl]ethyl}-3-fluorophenyl)carbamoyl]-2-(4-fluorophenyl)ethyl]carbamate]", "EC50": 42}, {"smiles": "C[C@@H]1CC([C@H](c2ccc(F)cc2)[C@H](N)C(=O)Nc2cccc(F)c2CC[C@H]2CN[C@@H]3CCCS(=O)(=O)N2C3)C[C@@H](C)O1", "note": "(stereo partly drawn) [Example 113, (βR)-β-[(2R,6R)-2,6-dimethyltetrahydro-2H-pyran-4-yl]-N-(2-{2-[(6R,9S)-2,2-dioxido-2-thia-1,7-diazabicyclo[4.3.1]dec-9-yl]ethyl}-3-fluorophenyl)-4-fluoro-L-phenylalaninamide]", "EC50": 22}, {"smiles": "COC(=O)N[C@H](C(=O)Nc1cccc(F)c1CCC1CNC2CCCS(=O)(=O)N1C2)[C@@H](c1ccc(Cl)cc1)c1cncc(C(C)(F)F)c1", "note": "(stereo partly drawn) [Example 114, methyl [(1S,2S)-2-(4-chlorophenyl)-2-[5-(1,1-difluoroethyl)pyridin-3-yl]-1-({2-[2-(2,2-dioxido-2-thia-1,7-diazabicyclo[4.3.1]dec-9-yl)ethyl]-3-fluorophenyl}carbamoyl)ethyl]carbamate]", "EC50": 22}, {"smiles": "COC(=O)N[C@H](C(=O)Nc1cccc(F)c1CCC1CNC2CCCS(=O)(=O)N1C2)[C@@H](c1ccc(Cl)cc1)c1ccc(C(C)(F)F)nc1", "note": "(stereo partly drawn) [Example 116, methyl [(1S,2S)-2-(4-chlorophenyl)-2-[6-(1,1-difluoroethyl)pyridin-3-yl]-1-({2-[2-(2,2-dioxido-2-thia-1,7-diazabicyclo[4.3.1]dec-9-yl)ethyl]-3-fluorophenyl}carbamoyl)ethyl]carbamate]", "EC50": 18}, {"smiles": "COC(=O)N[C@H](C(=O)Nc1cccc(F)c1CC[C@H]1CN[C@@H]2CCCS(=O)(=O)N1C2)[C@@H](c1ccc(F)cc1)[C@H]1CC[C@H](OC)CC1", "note": "[Example 117, methyl [(1S)-2-[(2-{2-[(6R,9S)-2,2-dioxido-2-thia-1,7-diazabicyclo[4.3.1]dec-9-yl]ethyl}-3-fluorophenyl)amino]-1-{(R)-(4-fluorophenyl)[(1r,4R)-4-methoxycyclohexyl]methyl}-2-oxoethyl]carbamate]", "EC50": 5}, {"smiles": "CO[C@H]1CC[C@H]([C@H](c2ccc(F)cc2)[C@H](N)C(=O)Nc2cccc(F)c2CC[C@H]2CN[C@@H]3CCCS(=O)(=O)N2C3)CC1", "note": "[Example 118, (βR)-N-(2-{2-[(6R,9S)-2,2-dioxido-2-thia-1,7-diazabicyclo[4.3.1]dec-9-yl]ethyl}-3-fluorophenyl)-4-fluoro-β-[(1r,4R)-4-methoxycyclohexyl]-L-phenylalaninamide]", "EC50": 7.5}, {"smiles": "C[C@@H]1C[C@H]([C@H](c2ccc(Cl)cc2)[C@H](N)C(=O)Nc2cccc(F)c2CC[C@H]2CN[C@@H]3CCCS(=O)(=O)N2C3)C[C@H](C)O1", "note": "[Example 121, (βR)-4-chloro-β-[(2R,4r,6S)-2,6-dimethyltetrahydro-2H-pyran-4-yl]-N-(2-{2-[(6R,9S)-2,2-dioxido-2-thia-1,7-diazabicyclo[4.3.1]dec-9-yl]ethyl}-3-fluorophenyl)-L-phenylalaninamide]", "EC50": 5.7}, {"smiles": "COC(=O)N[C@H](C(=O)Nc1cccc(F)c1CCC1CNC2CCCS(=O)(=O)N1C2)[C@@H](c1ccc(Cl)cc1)c1ccnc(OC(C)C)c1", "note": "(stereo partly drawn) [Example 122, methyl {(1S,2S)-2-(4-chlorophenyl)-1-({2-[2-(2,2-dioxido-2-thia-1,7-diazabicyclo[4.3.1]dec-9-yl)ethyl]-3-fluorophenyl}carbamoyl)-2-[2-(1-methylethoxy)pyridin-4-yl]ethyl}carbamate]", "EC50": 6.7}, {"smiles": "COC(=O)N[C@H](C(=O)Nc1cccc(F)c1CC[C@H]1CN[C@@H]2CCCS(=O)(=O)N1C2)[C@]1(c2ccc(Cl)cc2)CC[C@H](OC)CC1", "note": "[Example 125, methyl {(1S)-1-[cis-1-(4-chlorophenyl)-4-methoxycyclohexyl]-2-[(2-{2-[(6R,9S)-2,2-dioxido-2-thia-1,7-diazabicyclo[4.3.1]dec-9-yl]ethyl}-3-fluorophenyl)amino]-2-oxoethyl}carbamate]", "EC50": 71}, {"smiles": "CO[C@H]1CC[C@@](c2ccc(Cl)cc2)([C@H](N)C(=O)Nc2cccc(F)c2CC[C@H]2CN[C@@H]3CCCS(=O)(=O)N2C3)CC1", "note": "[Example 126, (2S)-2-amino-2-[cis-1-(4-chlorophenyl)-4-methoxycyclohexyl]-N-(2-{2-[(6R,9S)-2,2-dioxido-2-thia-1,7-diazabicyclo[4.3.1]dec-9-yl]ethyl}-3-fluorophenyl)ethanamide]", "EC50": 610}, {"smiles": "CC1(C)C[C@@H]([C@H](c2ccc(Cl)cc2)[C@H](N)C(=O)N[C@H]2CCCC[C@@H]2CC[C@H]2CN[C@@H]3CCCS(=O)(=O)N2C3)CCO1", "note": "[Example 129, (βR)-4-chloro-β-[(4S)-2,2-dimethyltetrahydro-2H-pyran-4-yl]-N-[(1S,2R)-2-{2-[(6R,9S)-2,2-dioxido-2-thia-1,7-diazabicyclo[4.3.1]dec-9-yl]ethyl}cyclohexyl]-L-phenylalaninamide]", "EC50": 56}, {"smiles": "COC(=O)N[C@H](C(=O)N[C@H]1CCCC[C@@H]1CC[C@H]1CN[C@@H]2CCCS(=O)(=O)N1C2)[C@@H](c1ccc(Cl)cc1)[C@@H]1CCOC(C)(C)C1", "note": "[Example 131, methyl [(1S,2R)-2-(4-chlorophenyl)-2-[(4R)-2,2-dimethyltetrahydro-2H-pyran-4-yl]-1-{[(1S,2R)-2-{2-[(6R,9S)-2,2-dioxido-2-thia-1,7-diazabicyclo[4.3.1]dec-9-yl]ethyl}cyclohexyl]carbamoyl}ethyl]carbamate]", "EC50": 24}, {"smiles": "N[C@H](C(=O)Nc1cccc(F)c1CC[C@H]1CN[C@@H]2CCCS(=O)(=O)N1C2)[C@@H](c1ccc(F)cc1)c1cnc(C(F)(F)F)nc1", "note": "[Example 132, (βS)-N-(2-{2-[(6R,9S)-2,2-dioxido-2-thia-1,7-diazabicyclo[4.3.1]dec-9-yl]ethyl)-3-fluorophenyl)-4-fluoro-β-[2-(trifluoromethyl)pyrimidin-5-yl]-L-phenylalaninamide]", "EC50": 15}]}, {"system": "HIV-1 (H9IIIB strain)", "experiment": "Cell-Based HIV Infection Assay Using a Reporter (MT4-GFP cells)", "conditions": "inflection point (IP) of viral growth inhibition; MT4-GFP cells infected with HIV-1 H9IIIB; 50% normal human serum; mean of at least two independent experiments; read-out: Cell Based IP (50% NHS)", "in_short": "as §1", "units": {"EC50": "nM"}, "values": [{"smiles": "COC(=O)N[C@H](C(=O)Nc1cccc(F)c1CC[C@H]1CN[C@@H]2CCCS(=O)(=O)N1C2)[C@@H](c1ccc(Cl)cc1)C1C[C@@H](C)O[C@@H](C)C1", "note": "(stereo partly drawn) [Example 120, methyl {(1S,2R)-2-(4-chlorophenyl)-2-[(2R,4r,6S)-2,6-dimethyltetrahydro-2H-pyran-4-yl]-1-[(2-{2-[(6R,9S)-2,2-dioxido-2-thia-1,7-diazabicyclo[4.3.1]dec-9-yl]ethyl}-3-fluorophenyl)carbamoyl]ethyl}carbamate]", "EC50": 6.2}]}]}
